Inhibition data for 29 compounds are collected here from US7968591B2, “1,3-disubstituted 4-methyl-1H-pyrrole-2-carboxamides and their use in medicaments” (Gruenenthal GmbH, priority 2006, dated 2011).

SMILES strings stand for the structures.

A word on the inhibition: it is the percentage by which the read-out fell short of the control. A high value points to a strong effect.

T2 sequence (Q63380 1-617): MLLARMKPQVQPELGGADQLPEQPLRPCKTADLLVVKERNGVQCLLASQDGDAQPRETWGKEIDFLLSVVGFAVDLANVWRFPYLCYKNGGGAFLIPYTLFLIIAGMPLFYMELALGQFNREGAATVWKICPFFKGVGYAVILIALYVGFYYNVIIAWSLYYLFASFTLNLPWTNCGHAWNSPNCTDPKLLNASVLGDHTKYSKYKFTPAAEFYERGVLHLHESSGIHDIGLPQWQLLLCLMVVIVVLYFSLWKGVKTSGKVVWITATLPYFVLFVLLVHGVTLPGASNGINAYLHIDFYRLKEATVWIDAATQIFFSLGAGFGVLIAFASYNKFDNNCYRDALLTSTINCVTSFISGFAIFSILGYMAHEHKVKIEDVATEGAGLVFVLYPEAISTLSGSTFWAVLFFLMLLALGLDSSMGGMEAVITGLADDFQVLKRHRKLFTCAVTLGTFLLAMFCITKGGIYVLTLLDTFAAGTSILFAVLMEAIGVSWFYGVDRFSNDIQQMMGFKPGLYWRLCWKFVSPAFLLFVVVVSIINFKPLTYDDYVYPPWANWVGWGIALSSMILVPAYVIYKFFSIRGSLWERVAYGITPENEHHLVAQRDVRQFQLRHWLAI

In one assay the target is T1, 5-HT uptake (Rattus norvegicus, UniProt P31652).
T1 construct: from tissue; host or cells: rat brain medulla and pons, synaptosomes (P2 fraction)
T1 sequence (P31652 whole entry): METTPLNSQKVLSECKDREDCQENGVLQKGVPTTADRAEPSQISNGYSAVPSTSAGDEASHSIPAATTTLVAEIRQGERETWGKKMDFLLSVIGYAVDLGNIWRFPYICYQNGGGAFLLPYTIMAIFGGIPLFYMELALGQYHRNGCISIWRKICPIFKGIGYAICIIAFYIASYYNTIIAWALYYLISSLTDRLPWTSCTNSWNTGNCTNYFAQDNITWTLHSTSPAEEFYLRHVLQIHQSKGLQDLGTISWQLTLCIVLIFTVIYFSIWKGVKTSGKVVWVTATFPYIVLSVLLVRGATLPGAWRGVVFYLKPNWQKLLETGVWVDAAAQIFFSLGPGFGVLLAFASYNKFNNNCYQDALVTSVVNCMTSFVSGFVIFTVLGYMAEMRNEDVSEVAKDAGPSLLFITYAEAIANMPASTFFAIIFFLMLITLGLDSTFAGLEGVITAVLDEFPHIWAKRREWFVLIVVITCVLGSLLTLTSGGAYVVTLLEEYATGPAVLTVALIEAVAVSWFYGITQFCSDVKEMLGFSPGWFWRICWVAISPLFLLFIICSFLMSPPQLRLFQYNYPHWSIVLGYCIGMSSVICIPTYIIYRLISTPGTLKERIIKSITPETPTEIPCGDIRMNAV
The experiment in a line: 5-HT uptake inhibition in rat brain synaptosomes. It counts as biochemical. To be noted: synaptosomes from rat medulla and pons, [3H]-5-HT. The source says: (§1) I. Method for Determining Noradrenalin and 5-HT Uptake Inhibition:
(§2) Synaptosomes from rat brain regions were freshly isolated for in vitro studies, as described in the publication “The isolation of nerve endings from brain” by E. G. Gray and V. P. Whittaker, J. Anatomy 96, pages 79-88, 1962. The corresponding literature description is hereby introduced as a reference and is deemed to be part of the disclosure.
(§3) The tissue (hypothalamus for the determination of noradrenalin uptake inhibition and medulla and pons for the determination of 5-HT uptake inhibition) was homogenized in ice-cooled 0.32 M sucrose (100 mg of tissue/1 mL) in a glass homogenizer with Teflon pestle using five complete up and down strokes at 840 revolutions/minute. The homogenate was centrifuged at 4° C. for 10 minutes at 1000 g. After subsequent centrifugation at 17000 g for 55 minutes, the synaptosomes (P2 fraction) were obtained, which were resuspended in 0.32 M glucose (0.5 mL/100 mg of original weight). The particular uptake was measured in a 96-well microtitre plate. The volume was 250 μl and incubation proceeded at room temperature (approx. 20-25° C.) under an O2 atmosphere. The incubation time was 7.5 minutes for [^3H]-NA and 5 minutes for [^3H]-5-HT. The 96 samples were then filtered through a Unifilter GF/B® microtitre plate (Packard) and washed with […] of incubated buffer using a “Brabdel MPXRI-96T Cell-Harvester”. The Unifilter GF/B plate was dried for 1 hour at 55° C. The plate was then sealed with a Back Seal® (Packard) and 35 μl of scintillation fluid were added per well (Ultima Gold®, Packard). After sealing with a top Seal® (Packard) and establishing an equilibrium (around 5 hours), radioactivity was determined in a “Trilux 1450 Microbeta” (Wallac).
(§4) A detailed description of the method may additionally be found in the literature, for example in M. Ch. Frink, H.-H. Hennies, W. Engelberger, M. Haurand and B. Wilffert (1996) Arzneim.-Forsch./Drug Res. 46 (III), 11, 1029-1036.
As to `COc1ccc(CNC(=O)c2c(-c3ccco3)c(C)cn2Cc2ccc(F)cc2)c(OC)c1` [Example 3, 1-(4-fluorobenzyl)-3-furan-2-yl-4-methyl-1H-pyrrole-2-carboxylic acid 2,4-dimethoxybenzylamide], the inhibition at 10 µM came out at 58%. Same read-out and setting: the figure for `CCCCn1cc(C)c(-c2ccc(C)cc2)c1C(=O)NCCc1ccccn1` [Example 4, 1-butyl-4-methyl-3-p-tolyl-1H-pyrrole-2-carboxylic acid (2-pyridin-2-ylethyl)-amide] is 39%; for `Cc1ccc(Cn2cc(C)c(-c3ccc(C)cc3)c2C(=O)N2CCN(c3ccc(C)cc3C)CC2)cc1` [Example 18, [4-(2,4-dimethylphenyl)-piperazin-1-yl]-[4-methyl-1-(4-methylbenzyl)-3-p-tolyl-1H-pyrrol-2-yl]-methanone] it is 50%; for `Cc1ccc(-c2c(C)cn(Cc3c(Cl)cccc3Cl)c2C(=O)N(C)CCc2ccccn2)cc1` [Example 19, 1-(2,6-dichlorobenzyl)-4-methyl-3-p-tolyl-1H-pyrrole-2-carboxylic acid methyl-(2-pyridin-2-ylethyl)-amide] it is 39%. Same read-out and setting: the figure for `Cc1ccc(-c2c(C)cn(C)c2C(=O)N2CCN(C3CCCCCC3)CC2)cc1` [Example 24, (4-cycloheptylpiperazin-1-yl)-(1,4-dimethyl-3-p-tolyl-1H-pyrrol-2-yl)-methanone] is 54%; for `COc1ccc(-c2c(C)cn(Cc3ccc(F)cc3)c2C(=O)NC(C)C(=O)OCc2ccccc2)cc1` (stereo not shown) [Example 29, 2-{[1-(4-fluorobenzyl)-3-(4-methoxyphenyl)-4-methyl-1H-pyrrole-2-carbonyl]-amino}-propionic acid benzyl ester] it is 52%; for `CCn1cc(C)c(-c2ccc(Cl)cc2)c1C(=O)NCc1cccc(OC)c1OC` [Example 34, 3-(4-chlorophenyl)-1-ethyl-4-methyl-1H-pyrrole-2-carboxylic acid 2,3-dimethoxybenzylamide] it is 37%. Consider `CCn1cc(C)c(-c2ccc(Cl)cc2)c1C(=O)NC(C(=O)OC(C)(C)C)C(C)C` (stereo not shown) [Example 36, 2-{[3-(4-chlorophenyl)-1-ethyl-4-methyl-1H-pyrrole-2-carbonyl]-amino}-3-methylbutyric acid tert.-butyl ester], for which 10 µM produced 74% inhibition. `COc1ccc(Cn2cc(C)c(-c3ccco3)c2C(=O)NC2CCCc3ccccc32)cc1` (stereo not shown) [Example 37, 3-furan-2-yl-1-(4-methoxybenzyl)-4-methyl-1H-pyrrole-2-carboxylic acid (1,2,3,4-tetrahydro-naphthalen-1-yl)-amide]: at 10 µM the inhibition was 68%. With `COc1ccc(Cn2cc(C)c(-c3ccc(C)cc3)c2C(=O)N(C)CC(=O)OCc2ccccc2)cc1` [Example 39, {[1-(4-methoxybenzyl)-4-methyl-3-p-tolyl-1H-pyrrole-2-carbonyl]-methylamino}-acetic acid benzyl ester], the inhibition at 10 µM stood at 54%. Regarding `CCOc1ccc(Br)cc1CN1CCN(C(=O)c2c(-c3ccccc3)c(C)cn2C)CC1` [Example 41, [4-(5-bromo-2-ethoxybenzyl)-piperazin-1-yl]-(1,4-dimethyl-3-phenyl-1H-pyrrol-2-yl)-methanone], at 10 µM the inhibition was 37%. `Cc1ccccc1N1CCN(C(=O)c2c(-c3ccc(Cl)cc3)c(C)cn2C)CC1` [Example 46, [3-(4-chlorophenyl)-1,4-dimethyl-1H-pyrrol-2-yl]-(4-o-tolylpiperazin-1-yl)-methanone]: 10 µM produced 34% inhibition. On the same count and under the same terms, with `CCOc1ccc(CCNC(=O)c2c(-c3ccc(OC)cc3)c(C)cn2Cc2ccc(F)cc2)cc1` [Example 47, 1-(4-fluorobenzyl)-3-(4-methoxyphenyl)-4-methyl-1H-pyrrole-2-carboxylic acid [2-(4-ethoxyphenyl)-ethyl]-amide] the figure was 67%. `COc1cc(OC)c(CN2CCN(C(=O)c3c(-c4ccc(C)cc4)c(C)cn3C)CC2)c(OC)c1` [Example 49, (1,4-dimethyl-3-p-tolyl-1H-pyrrol-2-yl)-[4-(2,4,6-trimethoxybenzyl)-piperazin-1-yl]-methanone] showed an inhibition at 10 µM of 30%. As for `Cc1cn(C)c(C(=O)N2CCN(c3ccncc3)CC2)c1-c1ccc(Cl)cc1` [Example 57, [3-(4-chlorophenyl)-1,4-dimethyl-1H-pyrrol-2-yl]-(4-pyridin-4-ylpiperazin-1-yl)-methanone], 10 µM produced 66% inhibition. The compound `Cc1cn(Cc2ccccc2F)c(C(=O)NCCCn2ccnc2)c1-c1ccc(Cl)cc1` [Example 58, 3-(4-chlorophenyl)-1-(2-fluorobenzyl)-4-methyl-1H-pyrrole-2-carboxylic acid (3-imidazol-1-ylpropyl)-amide] returned an inhibition at 10 µM of 50%. On the same count and under the same terms, the figure for `Cc1cn(Cc2ccccc2)c(C(=O)NCCc2ccc(Br)cc2)c1-c1ccco1` [Example 60, 1-benzyl-3-furan-2-yl-4-methyl-1H-pyrrole-2-carboxylic acid [2-(4-bromophenyl)-ethyl]-amide] is 67%. On the same count and under the same terms, with `Cc1cn(C)c(C(=O)N2CCN(C3CCCCCC3)CC2)c1-c1ccco1` [Example 61, (4-cycloheptylpiperazin-1-yl)-(3-furan-2-yl-1,4-dimethyl-1H-pyrrol-2-yl)-methanone] the figure was 52%. Still for that read-out and setting: with `COc1ccc(OCCNC(=O)c2c(-c3ccccc3)c(C)cn2Cc2ccccc2)cc1` [Example 62, 1-benzyl-4-methyl-3-phenyl-1H-pyrrole-2-carboxylic acid [2-(4-methoxyphenoxy)-ethyl]-amide] the figure was 73%.

`Cc1cn(Cc2ccc(F)cc2)c(C(=O)NCCCN(C)C)c1-c1ccco1` [Example 63, 1-(4-fluorobenzyl)-3-furan-2-yl-4-methyl-1H-pyrrole-2-carboxylic acid (3-dimethylamino-propyl)-amide] had an inhibition at 10 µM of 50%. Same read-out and setting: the figure for `COc1ccc(-c2c(C)cn(C)c2C(=O)N2CCN(c3cccc(Cl)c3)CC2)cc1` [Example 70, [4-(3-chlorophenyl)-piperazin-1-yl]-[3-(4-methoxyphenyl)-1,4-dimethyl-1H-pyrrol-2-yl]-methanone] is 54%.

The next assay addresses T2, NA transporter (Rattus norvegicus, UniProt Q63380).
T2 construct: from tissue; host or cells: rat brain hypothalamus, synaptosomes (P2 fraction)
The experiment in a line: Noradrenalin uptake inhibition in rat brain synaptosomes. Type of assay: biochemical. The following applies: synaptosomes from rat hypothalamus, [3H]-NA.
From the text: as §1, §2, §3, §4
As to `Cc1cn(Cc2ccccc2)c(C(=O)N2CCN(c3ccccc3Cl)CC2)c1-c1ccc(Cl)cc1` [Example 8, [1-benzyl-3-(4-chlorophenyl)-4-methyl-1H-pyrrol-2-yl]-[4-(2-chlorophenyl)-piperazin-1-yl]-methanone], the inhibition at 10 µM amounted to 70%. The compound `Cc1ccc(-c2c(C)cn(C)c2C(=O)N2CCN(C3CCCCCC3)CC2)cc1` [Example 24, (4-cycloheptylpiperazin-1-yl)-(1,4-dimethyl-3-p-tolyl-1H-pyrrol-2-yl)-methanone] gave an inhibition at 10 µM of 33%. On to `Cc1cn(Cc2ccccc2)c(C(=O)NCc2ccccn2)c1-c1ccccc1` [Example 26, 1-benzyl-4-methyl-3-phenyl-1H-pyrrole-2-carboxylic acid (pyridin-2-ylmethyl)-amide], for which the inhibition at 10 µM was found to be 33%. On the same count and under the same terms, the figure for `Cc1cn(CC(C)C)c(C(=O)NCc2ccc(N(C)C)cc2)c1-c1ccc(Cl)cc1` [Example 32, 3-(4-chlorophenyl)-1-isobutyl-4-methyl-1H-pyrrole-2-carboxylic acid 4-dimethylaminobenzylamide] is 35%; for `COc1ccc(-c2c(C)cn(Cc3ccc(F)cc3)c2C(=O)NCCc2cccs2)cc1` [Example 35, 1-(4-fluorobenzyl)-3-(4-methoxyphenyl)-4-methyl-1H-pyrrole-2-carboxylic acid (2-thiophen-2-ylethyl)-amide] it is 37%; for `Cc1ccccc1N1CCN(C(=O)c2c(-c3ccc(Cl)cc3)c(C)cn2C)CC1` [Example 46, [3-(4-chlorophenyl)-1,4-dimethyl-1H-pyrrol-2-yl]-(4-o-tolylpiperazin-1-yl)-methanone] it is 63%.

As to `Cc1cn(C)c(C(=O)N2CCN(C3CCCCCC3)CC2)c1-c1ccco1` [Example 61, (4-cycloheptylpiperazin-1-yl)-(3-furan-2-yl-1,4-dimethyl-1H-pyrrol-2-yl)-methanone], 10 µM produced 34% inhibition. In turn, `Cc1cn(Cc2ccc(F)cc2)c(C(=O)NCCCN(C)C)c1-c1ccco1` [Example 63, 1-(4-fluorobenzyl)-3-furan-2-yl-4-methyl-1H-pyrrole-2-carboxylic acid (3-dimethylamino-propyl)-amide] had an inhibition at 10 µM of 57%.

Turning to `CCN(CC)CCCNC(=O)c1c(-c2ccc(Cl)cc2)c(C)cn1CC(C)C` [Example 65, 3-(4-chlorophenyl)-1-isobutyl-4-methyl-1H-pyrrole-2-carboxylic acid (3-diethylamino-propyl)-amide], the inhibition at 10 µM was found to be 35%. Compound `COc1ccc(-c2c(C)cn(C)c2C(=O)N2CCN(c3cccc(Cl)c3)CC2)cc1` [Example 70, [4-(3-chlorophenyl)-piperazin-1-yl]-[3-(4-methoxyphenyl)-1,4-dimethyl-1H-pyrrol-2-yl]-methanone] gave an inhibition at 10 µM of 69%.

Consider `Cc1cn(C)c(C(=O)NCCCN2CCCCC2C)c1-c1ccc(Cl)cc1` (stereo not shown) [Example 78, 3-(4-chlorophenyl)-1,4-dimethyl-1H-pyrrole-2-carboxylic acid [3-(2-methylpiperidin-1-yl)-propyl]-amide], for which the inhibition at 10 µM was determined as 32%.

With `Cc1cn(C)c(C(=O)NCc2ccc(F)cc2C(F)(F)F)c1-c1ccco1` [Example 80, 3-furan-2-yl-1,4-dimethyl-1H-pyrrole-2-carboxylic acid 4-fluoro-2-trifluoromethylbenzylamide], at 10 µM the inhibition was 30%. Still for that read-out and setting: the figure for `Cc1cn(Cc2ccccc2)c(C(=O)NC(C)c2ccc3ccccc3c2)c1-c1ccco1` (stereo not shown) [Example 81, 1-benzyl-3-furan-2-yl-4-methyl-1H-pyrrole-2-carboxylic acid (1-naphthalen-2-ylethyl)-amide] is 57%.
